Here are results for 14 molecules from ChEMBL document CHEMBL1131038, “Derivatives of the triazoloquinazoline adenosine antagonist (CGS 15943) having high potency at the human A2B and A3 receptor subtypes” (J Med Chem, 1998).

A short description of experiment [1]: Ratio against rat A2A receptor and Human A3 receptor.
Experiment [2] concerns the target T1, Adenosine receptor A2b (Homo sapiens) (UniProt P29275).
T1 sequence (whole entry): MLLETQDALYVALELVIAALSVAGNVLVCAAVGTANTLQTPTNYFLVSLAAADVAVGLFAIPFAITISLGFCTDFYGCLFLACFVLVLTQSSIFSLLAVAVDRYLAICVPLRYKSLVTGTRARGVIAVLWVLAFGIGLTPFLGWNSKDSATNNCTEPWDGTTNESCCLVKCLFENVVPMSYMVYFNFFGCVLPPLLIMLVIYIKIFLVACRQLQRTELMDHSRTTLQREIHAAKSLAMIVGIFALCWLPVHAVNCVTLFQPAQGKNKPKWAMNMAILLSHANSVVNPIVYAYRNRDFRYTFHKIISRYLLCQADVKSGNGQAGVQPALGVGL
Briefly: Inhibition at 50 uM on cAMP production induced by 50 uM 5`-(N-ethylcarboxamido)adenosine in CHO cell line transfected with human Adenosine A2B receptor cDNA. Format: cell-based.

The next experiment deals with T2, Adenosine receptor A3 (Homo sapiens, UniProt P0DMS8).
T2 sequence (P0DMS8 whole entry): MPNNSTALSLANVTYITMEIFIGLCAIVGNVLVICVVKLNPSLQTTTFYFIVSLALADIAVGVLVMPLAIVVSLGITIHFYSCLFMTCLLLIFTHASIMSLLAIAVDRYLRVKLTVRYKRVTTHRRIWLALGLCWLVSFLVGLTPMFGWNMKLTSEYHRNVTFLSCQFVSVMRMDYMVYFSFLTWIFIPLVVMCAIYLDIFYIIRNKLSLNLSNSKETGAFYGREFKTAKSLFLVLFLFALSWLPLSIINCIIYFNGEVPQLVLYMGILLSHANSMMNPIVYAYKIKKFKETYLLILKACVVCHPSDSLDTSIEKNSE
The experiment in a line: biochemical.

A further experiment addresses T3, Adenosine receptor A1 (Rattus norvegicus, UniProt P25099).
T3 sequence (P25099 whole entry): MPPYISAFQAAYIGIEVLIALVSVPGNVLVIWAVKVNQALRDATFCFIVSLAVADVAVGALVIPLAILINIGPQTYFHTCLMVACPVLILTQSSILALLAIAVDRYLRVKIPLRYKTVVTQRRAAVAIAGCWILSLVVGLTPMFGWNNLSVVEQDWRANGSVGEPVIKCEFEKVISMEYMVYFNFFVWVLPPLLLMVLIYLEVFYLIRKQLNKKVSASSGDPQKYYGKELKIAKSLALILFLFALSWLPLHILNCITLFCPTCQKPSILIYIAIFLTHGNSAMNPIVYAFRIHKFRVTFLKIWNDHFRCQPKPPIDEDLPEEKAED

A further experiment deals with Adenosine receptor A2a (Rattus norvegicus, UniProt P30543). Briefly: Binding affinity was determined in radioligand binding assay at rat striatal Adenosine A2A receptor vs [3H]-CGS- 21680.
A short description of experiment [3]: Ratio against rat A1 receptor and Human A3 receptor.
The target in experiment [4] is T4, Adenosine receptor A2b (Homo sapiens, UniProt P29275).
T4 sequence (P29275 whole entry): T1 sequence (whole entry)
Briefly: pA2 value at human Adenosine A2B receptor from Schild plots with slopes approaching unity. Conditions: read-out: pA2 (converted).

The target of experiment [5] is T4, Adenosine receptor A2b. The experiment in a line: Inhibition of 50 uM 5`-(N-ethylcarboxamido)adenosine induced cAMP production in CHO cell line expressing human Adenosine A2B receptor. It counts as cell-based. In general terms: Changes in cAMP serve as a functional read-out for many G protein-coupled receptors.
Experiment [6] addresses T4, Adenosine receptor A2b. The experiment in a line: Inhibition of 50 uM 5`-(N-ethylcarboxamido)adenosine induced cAMP production in CHO cell line expressing human Adenosine A2B receptor at 50 uM. It counts as functional, cell-based.

Sequence of Adenosine receptor A2a (P30543 whole entry): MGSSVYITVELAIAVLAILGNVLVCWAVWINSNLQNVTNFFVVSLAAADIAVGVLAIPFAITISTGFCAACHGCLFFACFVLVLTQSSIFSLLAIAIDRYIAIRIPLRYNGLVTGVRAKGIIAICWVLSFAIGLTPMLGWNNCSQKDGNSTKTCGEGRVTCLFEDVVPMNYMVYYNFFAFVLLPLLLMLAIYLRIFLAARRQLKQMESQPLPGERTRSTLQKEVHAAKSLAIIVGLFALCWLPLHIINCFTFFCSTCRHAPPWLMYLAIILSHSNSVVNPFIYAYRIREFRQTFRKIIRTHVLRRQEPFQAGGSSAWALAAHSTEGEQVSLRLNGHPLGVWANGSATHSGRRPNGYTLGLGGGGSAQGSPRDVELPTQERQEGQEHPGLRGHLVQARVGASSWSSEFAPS
Description for Adenosine receptor A1: Binding affinity was determined in radioligand binding assay at rat brain adenosine A1 receptor vs [3H]R-PIA
Description for Adenosine receptor A3: Binding affinity at cloned human adenosine A3 receptor expressed in HEK293 cells was determined using [125I]AB-MECA as radioligand

On to `O=C(/C=C/c1ccccc1)Nc1nc2ccc(Cl)cc2c2nc(-c3ccco3)nn12`, for which the results for the Selectivity ratio in experiment [1] and in [3] were 0.71 and 3.9, respectively. Besides, the inhibition (in general, the share of the control response that was lost under treatment) in [2] was 38%. For the same molecule, the values for the Ki on Adenosine receptor A3, at Adenosine receptor A1 and on Adenosine receptor A2a were 72.1 nM, 282 nM and 59.8 nM, respectively.
Regarding `NCCCCCCC(=O)Nc1nc2ccc(Cl)cc2c2nc(-c3ccco3)nn12`, the Selectivity ratio in [1] worked out at 0.16; in experiment [3], 0.33. Besides, in [2], the inhibition came out at 75%. The inhibition constant (Ki) (in general, a dissociation constant, usually derived from enzyme kinetics or from competition with a known ligand) is 346 nM on Adenosine receptor A3, 114 nM at Adenosine receptor A1 and 55.9 nM on Adenosine receptor A2a.
Consider `O=C(Cc1ccc(I)cc1)Nc1nc2ccc(Cl)cc2c2nc(-c3ccco3)nn12`, for which the Selectivity ratio in experiment [1] was 0.16; in experiment [3] it was 0.22. This molecule came in with an inhibition in [2] of 42%. The Ki on Adenosine receptor A3 is 62.9 nM; at Adenosine receptor A1 it was 13.8 nM; on Adenosine receptor A2a, 9.93 nM.
As to `NCCCC(=O)Nc1nc2ccc(Cl)cc2c2nc(-c3ccco3)nn12`, the Selectivity ratio was 0.017 in experiment [1] and 0.11 in experiment [3]. Moreover, the inhibition in experiment [2] turned out to be 100%. Moreover, at Adenosine receptor A2b [4], the Kb was 10 nM. The results for the inhibitory constant (Ki) on Adenosine receptor A1 and at Adenosine receptor A2a were 8.75 nM and 1.38 nM, respectively. Besides, the IC50 (usually the midpoint of a concentration-inhibition curve) against Adenosine receptor A2b [5] is 270 nM.
As to `Nc1ccc(CC(=O)Nc2nc3ccc(Cl)cc3c3nc(-c4ccco4)nn23)cc1`, the inhibition in experiment [2] turned out to be 90%. The same molecule returned a Ki at Adenosine receptor A3 of 3.56 nM. The same molecule had an IC50 against Adenosine receptor A2b [5] of 7400 nM.
Turning to `NCCCCC(=O)Nc1nc2ccc(Cl)cc2c2nc(-c3ccco3)nn12`, the Selectivity ratio in [1] turned out to be 0.02; in experiment [3], 0.12. This molecule also came in with an inhibition in experiment [2] of 100%. In addition, the values for the Ki at Adenosine receptor A3, at Adenosine receptor A1 and at Adenosine receptor A2a were 57.9 nM, 6.99 nM and 1.13 nM, respectively. Also, the IC50 against Adenosine receptor A2b [5] was found to be 1770 nM.
In experiment [2], `CC(C)(C)OC(=O)Nc1nc2ccc(Cl)cc2c2nc(-c3ccco3)nn12` registered an inhibition of 92%. At Adenosine receptor A2b [5], inhibition was half-maximal at 2410 nM (IC50).
As for `Nc1ccc(CC(=O)Nc2nc3ccc(Cl)cc3c3nc(-c4ccco4)nn23)cc1I`, the Selectivity ratio in experiment [1] was determined as 0.21; in experiment [3], 4.4. For the same molecule, the inhibition in experiment [2] came out at 23%. In addition, the Ki on Adenosine receptor A3 is 49.3 nM; at Adenosine receptor A1, 217 nM; on Adenosine receptor A2a it was 10.4 nM.
In the case of `O=C(O)CCCC(=O)Nc1nc2ccc(Cl)cc2c2nc(-c3ccco3)nn12`, the Selectivity ratio in experiment [1] amounted to 0.014; in experiment [3], 0.55. Moreover, the Ki at Adenosine receptor A3 was 81.3 nM; at Adenosine receptor A1, 45 nM; at Adenosine receptor A2a, 1.15 nM. On Adenosine receptor A2b [6], this molecule registered an IC50 of 1900 nM.
`O=C(Cc1cccc(Cl)c1)Nc1nc2ccc(Cl)cc2c2nc(-c3ccco3)nn12`: the Selectivity ratio in experiment [1] turned out to be 0.29; in experiment [3] it was 1.3. In experiment [2], this molecule came in with an inhibition of 45%. For the same molecule, the inhibition constant Ki is 32.1 nM at Adenosine receptor A3, 43 nM at Adenosine receptor A1 and 9.43 nM on Adenosine receptor A2a.
Turning to `NCCC(=O)Nc1nc2ccc(Cl)cc2c2nc(-c3ccco3)nn12`, the values for the Selectivity ratio in experiment [1] and in [3] were 0.0088 and 0.1, respectively. In experiment [2], this molecule came in with an inhibition of 83%. Besides, the Ki was determined as 874 nM at Adenosine receptor A3, 89.8 nM at Adenosine receptor A1 and 7.58 nM at Adenosine receptor A2a. Moreover, it took 13300 nM to reach half-maximal inhibition at Adenosine receptor A2b [5] (IC50).
The molecule `CC(C)(C)C(=O)Nc1nc2ccc(Cl)cc2c2nc(-c3ccco3)nn12` had an inhibition in [2] of 89%. This molecule came in with a half-inhibitory concentration (IC50) at Adenosine receptor A2b [5] of 2400 nM.
On to `NCCCCCC(=O)Nc1nc2ccc(Cl)cc2c2nc(-c3ccco3)nn12`, for which the Selectivity ratio worked out at 0.048 in experiment [1] and 0.47 in experiment [3]. The molecule further registered an inhibition in experiment [2] of 79%. For the same molecule, the results for the Ki at Adenosine receptor A3, at Adenosine receptor A1 and on Adenosine receptor A2a were 213 nM, 99.6 nM and 10.3 nM, respectively.
Turning to `CC(=O)Nc1nc2ccc(Cl)cc2c2nc(-c3ccco3)nn12`, the inhibition in experiment [2] amounted to 92%. The IC50 on Adenosine receptor A2b [5] was 2650 nM.
